Test results reported in patent US20160305924A1 (LAGUNA PHARMACEUTICALS , INC., priority 2013, published 2016).

Key:
Format in all cases: in vivo, human
[1] = Example 1: plasma concentrations of vanoxerine and metabolites after a 300 mg dose (LC-MS/MS); conditions: for High concentration group average (plasma concentration): 10 patients high concentration group; for Low concentration group average (plasma concentration): 15 patients low concentration group; for Concentrations (plasma): mean of 25 patients
Experimental: Each patient gave samples before administration of their dose, and then again at nine further time points, 30 minutes after administration, 1, 2, 3, 4, 6, 8, 12, and 24 hours post administration.
Evaluation of samples: A total of 270 human plasma samples were received (in duplicate). The samples were shipped frozen over dry ice. The samples were stored at −70° C. (nominal) until analysis.
Frozen samples were thawed at room temperature. Samples, calibrators, QC samples, sample blanks (blank plasma) and reagent blanks (water) were processed at room temperature. To 200 μL aliquots of each sample, calibrator, and QC sample are added 20 μL of 500 ng/mL of internal standard solution. A sample blank (blank plasma) and reagent blank (water) were also prepared, but without addition of internal standard solution (20 μL of diluent was added instead). To each sample, 200 μL of 1% ammonium hydroxide solution were added and vortex mixed. 3.0 mL of methyl tert-butyl ether were added and then vortex mix for 30 seconds. The sample is then centrifuged for 5 minutes at 4000 rpm and then transferred for about 30 minutes at −70° C. (nominal). The upper (organic) layer was transferred into an evaporation tubes and then evaporated under N2 stream at −50° C. for about 20 min. Samples were then reconstituted in 1000 μL reconstitution solution (80:20:0.1 water: acetonitrile: formic acid). Samples were mixed, allow to stand for about 3 minutes and mixed again. 900 μL of the sample solution was transferred to a 1.5 mL microcentrifuge tube and centrifuged for 5 minutes at 14000 rpm at room temperature. 800 μL of the sample solution was transferred to a glass autosampler vial, and then transferred to the autosampler for analysis. Samples were separated using reversed-phase liquid chromatography with a C18 column.
Chromatographic conditions were as follows: • HPLC instrument: Waters Alliance e2795 HT with temperature controlled autosampler • Column: Waters XBridge C18 3.5μ 100×2.1 mm P.N. 186003022, Lot No. 0143302711 with an appropriate guard column • Column temperature: 45° C. • Autosampler temp. 5° C. • Flow: 0.3 mL/min • Mobile phase A: 10 mM ammonium formate buffer:MeOH:ACN 80:10:10 • Mobile phase B: 10 mM ammonium formate buffer:MeOH:ACN 5:50:45 • Purge solvent: Water:ACN:formic acid 50:50:0.1 • Wash solvent: Water:ACN:formic acid 50:50:0.1 • Injection volume: 20 μL • Run Time: 15 minutes
Detection was based on electro-spray interface in positive mode (ESI+) LC-MS/MS technique, using Micromass Quattro Premier XE MS/MS detector with MassLynx and QuanLynx software version 4.1. […] The MRM transition for all hydroxyl metabolites was m/z 467→203.

[2] = Example 5: adverse events
From the text: (§1) The vanoxerine or identical appearing placebo was randomly assigned and administered in a double-blinded fashion.

[3] = system: recent onset symptomatic AF/AFL; assay: Example 5: double-blinded placebo-controlled study, conversion to sinus rhythm
From the text: as §1

[4] = Example 3: daily doses for 14 days after a standardized meal, serum levels and adverse events
Experimental: A standardized meal was served 15 minutes prior to each dosing.

[5] = Example 4: daily doses for 7 days, hemodynamics and steady state; conditions: 50, 100, 150 mg daily, all patients
[6] = Example 2: daily doses for 11 consecutive days, PK and hemodynamics
[7] = 0.5 h post administration, 1.00 = below LLOQ

Compound: 16-hydroxyl vanoxerine [M02]
- High concentration group average (plasma concentration) ([1]; 0.5 h, 1.00 = below LLOQ): 1.00 ng/mL
- High concentration group average (plasma concentration) ([1]; 1 h, 1.00 = below LLOQ): 1.00 ng/mL
- High concentration group average (plasma concentration) ([1]; 6 h, 1.00 = below LLOQ): 1.00 ng/mL
- High concentration group average (plasma concentration) ([1]; 8 h, 1.00 = below LLOQ): 1.00 ng/mL
- High concentration group average (plasma concentration) ([1]; 12 h, 1.00 = below LLOQ): 1.00 ng/mL
- High concentration group average (plasma concentration) ([1]; 24 h): 0.00 ng/mL
- Low concentration group average (plasma concentration) ([1]; 0.5 h, 1.00 = below LLOQ): 1.00 ng/mL
- Low concentration group average (plasma concentration) ([1]; 2 h, 1.00 = below LLOQ): 1.00 ng/mL
- Low concentration group average (plasma concentration) ([1]; 3 h, 1.00 = below LLOQ): 1.00 ng/mL
- Low concentration group average (plasma concentration) ([1]; 4 h, 1.00 = below LLOQ): 1.00 ng/mL
- Low concentration group average (plasma concentration) ([1]; 6 h, 1.00 = below LLOQ): 1.00 ng/mL
- Low concentration group average (plasma concentration) ([1]; 8 h, 1.00 = below LLOQ): 1.00 ng/mL
- Low concentration group average (plasma concentration) ([1]; 12 h, 1.00 = below LLOQ): 1.00 ng/mL
- Low concentration group average (plasma concentration) ([1]; 24 h, 1.00 = below LLOQ): 1.00 ng/mL
- Concentrations (plasma) [1, 7]: 1.00 ng/mL
- Concentrations (plasma) ([1]; 1 h, 1.00 = below LLOQ): 1.02 ng/mL
- Concentrations (plasma) ([1]; 2 h, 1.00 = below LLOQ): 1.02 ng/mL
- Concentrations (plasma) ([1]; 3 h, 1.00 = below LLOQ): 1.01 ng/mL
- Concentrations (plasma) ([1]; 4 h, 1.00 = below LLOQ): 1.01 ng/mL
- Concentrations (plasma) ([1]; 6 h, 1.00 = below LLOQ): 1.00 ng/mL
- Concentrations (plasma) ([1]; 8 h, 1.00 = below LLOQ): 1.00 ng/mL
- Concentrations (plasma) ([1]; 12 h, 1.00 = below LLOQ): 1.00 ng/mL
- Concentrations (plasma) ([1]; 24 h, 1.00 = below LLOQ): 1.00 ng/mL

Compound: Fc1ccc(C(OCCN2CCN(CCCc3ccccc3)CC2)c2ccc(F)cc2)cc1 [Vanoxerine, 1-[2-[bis(4-fluorophenyl)methoxy]ethyl]-4-(3-phenylpropyl)piperazine]
- Adverse events: serious adverse events ([2]; 200 mg (22)): 1 SAE
- Adverse events: subjects reporting ([2]; 200 mg (22)): 4 (18%) subjects (%)
- Adverse events: subjects reporting ([2]; 300 mg (25)): 7 (28%) subjects (%)
- Adverse events: serious adverse events ([2]; 400 mg (25)): 1 SAE
- Adverse events: subjects reporting ([2]; 400 mg (25)): 10 (40%) subjects (%)
- tolerability ([2]; 200, 300, 400 mg): well tolerated at all doses
- Efficacy: Percent conversion ([3]; 200 mg (22), 0-4 hr): 18%
- Efficacy: Percent conversion ([3]; 200 mg (22), 0-8 hr): 45%
- Efficacy: Percent conversion ([3]; 200 mg (22), 0-24 hr): 59%
- Efficacy: Percent conversion ([3]; 300 mg (25), 0-4 hr): 40%
- Efficacy: Percent conversion ([3]; 300 mg (25), 0-8 hr): 52%
- Efficacy: Percent conversion ([3]; 300 mg (25), 0-24 hr): 64%
- Efficacy: Percent conversion ([3]; 400 mg (25), 0-4 hr): 52%
- Efficacy: Percent conversion ([3]; 400 mg (25), 0-8 hr): 76%
- Efficacy: Percent conversion ([3]; 400 mg (25), 0-24 hr): 84%
- time to conversion to normal sinus rhythm, majority of patients ([3]; at a Cmax plasma concentration of more than 40 ng/ml): under 12 hours
- steady-state serum levels versus dose ([4]; 25, 75, 125 mg daily): disproportionately and statistically greater levels at higher doses
- adverse events ([4]; 25, 75, 125 mg daily for 14 days, healthy patients): No significant adverse events
- steady state levels achieved [5]: within one week
- T1/2 range ([6]; 50 mg daily for 11 days): (4.71-110.57) hr
- T1/2 range ([6]; 75 mg daily for 11 days): (10.26-116.67) hr
- steady state reached ([6]; 50, 75 and 100 mg daily): ≤ 8 days
- Tmax ([6]; human, plasma, printed in the Dose column under 50 mg, read-out: TMax range): 0.5 to 2 h

Compound: 17-hydroxyl vanoxerine [M01]
- High concentration group average (plasma concentration) ([1]; 2 h, 1.00 = below LLOQ): 28.00 ng/mL
- Low concentration group average (plasma concentration) ([1]; 8 h, 1.00 = below LLOQ): 5.30 ng/mL
- Concentrations (plasma) [1, 7]: 1.93 ng/mL
- Concentrations (plasma) ([1]; 1 h, 1.00 = below LLOQ): 7.51 ng/mL
- Concentrations (plasma) ([1]; 2 h, 1.00 = below LLOQ): 19.65 ng/mL
- Concentrations (plasma) ([1]; 3 h, 1.00 = below LLOQ): 18.68 ng/mL
- Concentrations (plasma) ([1]; 4 h, 1.00 = below LLOQ): 16.42 ng/mL
- Concentrations (plasma) ([1]; 6 h, 1.00 = below LLOQ): 11.48 ng/mL
- Concentrations (plasma) ([1]; 8 h, 1.00 = below LLOQ): 8.98 ng/mL
- Concentrations (plasma) ([1]; 12 h, 1.00 = below LLOQ): 6.30 ng/mL
- Concentrations (plasma) ([1]; 24 h, 1.00 = below LLOQ): 3.66 ng/mL
